Measurements reported in US10344017B2, “Pyrrolcarboxamide derivatives for the inhibition of ERK5” (CANCER RESEARCH TECHNOLOGY LIMITED, priority 2014, dated 2019).
Read-outs that look alike come from different tables or passages of the source.

How the values were obtained:
[1] = system: ERK5 (HA-ERK5 wt activated by EGFP-MEK5D, MEF2D-Gal4/Gal4-Luc reporter) in HEK293 cells; assay: Dual-luciferase reporter assay (ERK5 reporter), reverse-transfected HEK293 cells; conditions: Homo sapiens, HEK293, read-out: ERK 5 Reporter Assay
Procedure: Trypsinizing of Adherent Cell Colonies
Cells were regularly passaged in order to maintain optimum colony sizes on plates. In order to do this, and to harvest cells for use in the dual-luciferase reporter assay, adherent cells were lifted from tissue culture dishes. Cell media was removed via aspiration, and the cell monolayer was washed with phosphate buffered saline (PBS) solution (10 mL), which was then aspirated.
Reverse Transfection of HEK293 Cells
Preparation of EGFP Control (C3) Working Solution (for 1×96 Well Plate)
Preparation of HEK293 Cells for Reverse Transfection
Trypsinized HEK293 cells were re-suspended in 19 mL of fresh cell media and counted using haemocytometry. Cells were then diluted with fresh cell media to achieve a final cell concentration of 2×10^5 cells/mL. 1237.5 μL and 7425 μL of this cell media was added to the C3 and 5D working solutions respectively. 100 μL of the transfected cells were then aliquoted into the appropriate wells in a 96-well opaque sided tissue culture plate, and incubated at 37° C. for 6 h.
Addition of Compounds to HEK293 Cells
4 compounds was assayed per 96-well plate. For each compound, 1 mL of growth media was added to eight 1.5 mL Eppendorf® tubes. 6 μL of DMSO was added to two tubes for C3 and blank 5D wells, and 6 μL of the relevant compound stock solution was added to the 6 remaining tubes. […] Solutions of drug in media were thoroughly mixed, and 100 μL of the relevant compound was transferred (in triplicate) to the 96-well plate containing transfected HEK293 cells using an electronic multichannel pipette with variable tip spacing. Sealed plates were incubated at 37° C. for 24 h. Final compound concentrations were as follows; 30 μM, 10 μM, 3 μM, 1 μM and 0.3 μM.
15 mL of 1× passive lysis buffer (PLB) was prepared using 5×PLB (Dual-Luciferase Reporter Assay System, Promega® E1960), diluting with H2O. Assay plates prepared were removed from the incubator and the growth media removed by aspiration.

ERK5 = biological target: T1, ERK5 (Homo sapiens, UniProt Q13164); assay: ERK5 IMAP assay (fluorescence polarisation); assay type: biochemical
T1 construct: made in house
T1 sequence (Q13164 whole entry): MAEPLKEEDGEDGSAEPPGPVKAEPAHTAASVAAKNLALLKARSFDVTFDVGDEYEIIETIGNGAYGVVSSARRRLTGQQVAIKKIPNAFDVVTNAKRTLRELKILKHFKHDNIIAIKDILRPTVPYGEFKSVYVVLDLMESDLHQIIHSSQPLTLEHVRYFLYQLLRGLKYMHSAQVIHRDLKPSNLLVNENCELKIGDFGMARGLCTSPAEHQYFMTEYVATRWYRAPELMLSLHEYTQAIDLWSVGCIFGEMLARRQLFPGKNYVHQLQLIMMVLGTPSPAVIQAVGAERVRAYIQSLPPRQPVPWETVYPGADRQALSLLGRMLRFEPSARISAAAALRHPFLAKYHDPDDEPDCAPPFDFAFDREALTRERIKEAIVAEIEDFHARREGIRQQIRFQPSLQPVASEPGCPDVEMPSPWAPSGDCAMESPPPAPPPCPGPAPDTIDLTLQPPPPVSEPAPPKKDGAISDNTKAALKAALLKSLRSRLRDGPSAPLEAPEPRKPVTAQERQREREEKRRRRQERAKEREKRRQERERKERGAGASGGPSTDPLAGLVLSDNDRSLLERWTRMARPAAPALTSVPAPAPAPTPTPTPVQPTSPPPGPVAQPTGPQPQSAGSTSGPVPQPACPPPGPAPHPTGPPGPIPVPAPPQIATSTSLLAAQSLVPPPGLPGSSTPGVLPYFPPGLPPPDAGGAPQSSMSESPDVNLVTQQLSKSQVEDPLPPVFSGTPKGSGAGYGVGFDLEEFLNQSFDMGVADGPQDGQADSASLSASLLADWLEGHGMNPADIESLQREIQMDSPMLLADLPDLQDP

[2] = system: ERK5 autophosphorylation in HeLa cells; assay: EGF-stimulated HeLa cell assay (ERK5 autophosphorylation, Western blot); assay type: cell-based; conditions: Homo sapiens, average where more than one data point
Procedure: EGF-Stimulated HeLa Cell Assay
HeLa cells were serum starved overnight followed by treatment with ERK5 inhibitors for 1 hr. Cells were then stimulated with 100 ng/ml EGF for 10 or 15 min. The cells were harvested and lysed at 4° C. for 5-10 min in Laemmli buffer containing Halt protease and […] (Pierce). The lysates were boiled for 10 min at 100° C. Twenty microliters sample was run on 6% or 7.5% Tris-glycine gels and transferred to nitrocellulose. […] The IC50 was calculated from densitometry of top bands.

[3] = system: HA-ERK5-ΔP493 (MEK5D-activated, MEF2D-Gal4/Gal4-Luc reporter) in HEK293T cells; assay: Truncated dual-luciferase reporter assay, HEK293T forward transfection; assay type: cell-based; conditions: Homo sapiens, HEK-293T, average where more than one data point, read-out: Truncated ERK 5 Reporter Assay
Procedure: (§1) Truncated Dual-Luciferase Reporter Assay
(§2) HEK293T and HeLa Forward Transfection
Constitutively-active, EGFP-tagged MEK5 (EGFP-MEK5D; 0.5 μg/μl), an EGFP-tagged construct containing no MEK5D (EGFP-C3; 0.5 μg/μl), and HA-tagged ERK5 with C-terminal truncation (HA-ERK5-ΔP493; 0.51 μg/μl) were diluted separately in sterile distilled water. Plasmid DNA and Lipofectamine 2000 (Invitrogen) were separately diluted in Opti-MEM growth media (reduced serum medium, Invitrogen), and incubated at room temperature for 5 min. Plasmid DNA (Tube A) and Lipofectamine 2000 (Tube B) were then combined and incubated for 20 min at room temperature to complex. Cells were then transfected by addition of 16 μl of the respective transfection mixture: 3 wells with EGFP-C3-containing (control) and 21 wells with MEK5D-containing transfection mixture (final volume, 100 μl). Cells were subsequently incubated for 4 h at 37° prior to addition of potential ERK5-inhibitory compounds.
Addition of Compounds to ERK5-Transfected HEK293T or HeLa Cells
Potential ERK5-inhibitory compounds were prepared as a 2× solution by addition of 2 μl compound (or DMSO as control) to 1 ml standard culture medium. Compounds were tested in triplicate at a concentration range of 0.003 μM, 0.01 μM, 0.03 μM, 0.1 μM, 0.3 μM and 1 μM (or 0.03 μM, 0.1 μM, 0.3 μM, 1 μM, 3 μM and 10 μM for BIX02189) by addition of 100 μl 2× solution to 100 μl transfected cells (final DMSO, 0.1% v/v). Cells were incubated for 24 h at 37° C.
(§3) Cell Lysis and Luciferase Quantification
(§4) After 24 h incubation in the absence (control) or presence of potential inhibitor, the culture medium was aspirated and cells lysed in 20 μl 1× passive lysis buffer (Dual-Luciferase Reporter Assay System, Promega) for a minimum of 15 min with agitation. Lysates were further processed immediately or stored at −80° C. Cellular inhibition of ERK5 was quantified using the Dual-Luciferase Reporter Assay System (Promega). Luciferase assay buffer/Luciferase assay substrate and Stop and Glo assay buffer/Stop and Glo substrate were prepared according to the manufacturer's instructions. Luciferase reagent (50 μl/well) was added immediately before luminescence detection using a FLUOstar Omega plate reader (BMG Labtech). Stop and Glo reagent (50 μl/well) was subsequently added, and the Renilla luciferase signal (transfection efficiency control) quantified.
The ERK5-specific signalling activity was calculated by subtraction of the EGFP-C3 luciferase signal from the EGFP-MEK5D-induced luminescence. Luminescence in the absence of potential ERK5 inhibitor (DMSO control) was taken as 100% ERK5 activity. […] Unless stated otherwise, data are mean±standard deviation of three independent experiments.

[4] = system: HA-ERK5-ΔP493 (MEK5D-activated, MEF2D-Gal4/Gal4-Luc reporter) in HeLa cells; assay: Truncated dual-luciferase reporter assay, HeLa forward transfection; assay type: cell-based; conditions: Homo sapiens, value with spread
Procedure: as §1, §2
HEK293T or HeLa cells were seeded in 96-well luminescence (white) plates (1.68×10^4/well in 84 μl standard culture medium) and incubated overnight at 37° C. in a humidified atmosphere of 5% CO2 in air. Plasmid DNA mastermix containing MEF2D-Gal4 (0.25 μg/μl), Gal4-Luc (1.25 μg/μl) and Renilla luciferase (0.1 μg/μl) was prepared in sterile distilled water. Constitutively-active, EGFP-tagged MEK5 (EGFP-MEK5D; 0.5 μg/μl), an EGFP-tagged construct containing no MEK5D (EGFP-C3; 0.5 μg/μl), and HA-tagged ERK5 with C-terminal truncation (HA-ERK5-ΔP493; 0.51 μg/μl) were diluted separately in sterile distilled water. Plasmid DNA and Lipofectamine 2000 (Invitrogen) were separately diluted in Opti-MEM growth media (reduced serum medium, Invitrogen), and incubated at room temperature for 5 min. Plasmid DNA (Tube A) and Lipofectamine 2000 (Tube B) were then combined and incubated for 20 min at room temperature to complex. […]
as §3
as §4, with “Lysates were further processed immediately or stored at −80° C.” left out, “Luciferase assay buffer/Luciferase assay substrate and Stop and Glo assay buffer/Stop and Glo substrate were prepared according to the manufacturer's instructions.” left out
The ERK5-specific signalling activity was calculated by subtraction of the EGFP-C3 luciferase signal from the EGFP-MEK5D-induced luminescence. Luminescence in the absence of potential ERK5 inhibitor (DMSO control) was taken as 100% ERK5 activity. […]

[5] = cited from earlier work
[6] = system: bFGF-induced angiogenesis; conditions: matrigel plug; cited from earlier work
human and murine tumour = conditions: cited from earlier work
[7] = system: tumour cell lines and endothelial cells; conditions: cited from earlier work
[8] = average (e.g. geometric mean) where more than one data point, read-out: ERK5 IC50
[9] = value ± spread, second part of table, read-out: ERK5 IMAP IC50

SMILES	IC50 [1]	IC50 (ERK5; [8])	IC50 [2]	IC50 (ERK5; [9])	IC50 [4]	other results
COc1ccc(Cl)c(C(=O)c2c[nH]c(C(=O)NC3CCN(C)CC3)c2)c1F [Example 70, 4-(6-chloro-2-fluoro-3-methoxybenzoyl)-N-(1-methylpiperidin-4-yl)-1H-pyrrole-2-carboxamide]	477 nM	57.9 nM	1700 nM	–	–	–
COc1ccc(Cl)c(C(=O)c2c[nH]c(C(=O)Nc3cccnc3)c2)c1F [Example 72, 4-(6-chloro-2-fluoro-3-methoxybenzoyl)-N-(pyridin-3-yl)-1H-pyrrole-2-carboxamide]	2980 nM	90.8 nM	1900 nM	–	–	–
CCN(CC)CCNc1ncc(NC(=O)c2cc(C(=O)c3c(Cl)ccc(Cl)c3F)c[nH]2)cn1 [Example 100, 4-(3,6-Dichloro-2-fluorobenzoyl)-N-(2-((2-(diethylamino)ethyl)amino)pyrimidin-5-yl)-1H-pyrrole-2-carboxamide]	–	19.3 nM	490 nM	–	–	IC50 [3]: 151 nM
O=C(Nc1ccc(OC2CCNCC2)nc1)c1cc(C(=O)c2c(Cl)ccc(Cl)c2F)c[nH]1 [Example 109, 4-(3,6-Dichloro-2-fluorobenzoyl)-N-(6-(piperidin-4-yloxy)pyridin-3-yl)-1H-pyrrole-2-carboxamide]	–	10.8 nM	50 nM	–	–	IC50 [3]: 92 nM
O=C(Nc1cccnc1)c1cc(C(=O)c2c(Cl)ccc(Cl)c2F)c[nH]1 [Example 172, 4-(3,6-Dichloro-2-fluorobenzoyl)-N-(pyridin-3-yl)-1H-pyrrole-2-carboxamide]	598 nM	65.6 nM	190 nM	–	–	–
Cn1cc(NC(=O)c2cc(C(=O)c3c(F)cccc3F)c[nH]2)cn1 [Example 285, 4-(2,6-Difluorobenzoyl)-N-(1-methyl-1H-pyrazol-4-yl)-1H-pyrrole-2-carboxamide]	–	–	–	1560 ± 50 nM	671 nM	–
Cc1cccc(F)c1C(=O)c1c[nH]c(C(=O)Nc2cnn(C)c2)c1 [Example 286, 4-(2-Fluoro-6-methylbenzoyl)-N-(1-methyl-1H-pyrazol-4-yl)-1H-pyrrole-2-carboxamide]	–	–	–	7070 ± 20 nM	2480 nM	–
Cn1cc(NC(=O)c2cc(C(=O)c3ccccc3F)c[nH]2)cn1 [Example 287, 4-(2-Fluorobenzoyl)-N-(1-methyl-1H-pyrazol-4-yl)-1H-pyrrole-2-carboxamide]	–	–	–	7550 ± 300 nM	3200 nM	–
CCOc1cc(N2CCC(O)CC2)ccc1Nc1ncc2c(n1)N(C)c1ccccc1C(=O)N2C [XMD8-92]	–	–	–	–	–	tolerability in mice [5]: well tolerated; blood vessel formation [6]: completely abrogated blood vessel formation; tumour growth (human and murine tumour; human and murine tumours in mice): pronounced retardation of both human and murine tumour growth; inhibition of tumour ERK5 (human and murine tumour; mice): inhibited tumour ERK5; anti-proliferative activity [7]: modest anti-proliferative activity
